Assay results published in patent US20250171452A1 (Viscient Bio, Inc., priority 2022, published 2025).

Target: IDO2 (Homo sapiens (Human), UniProt Q6ZQW0)
Test: Cellular IDO2 assay, doxycycline and 5-methoxy-L-tryptophan medium, colorimetric
Assay type: cell-based
Conditions: cellular level, 72 h incubation, signal at 480 nm

Sequence of IDO2 (Q6ZQW0 whole entry, species assumed): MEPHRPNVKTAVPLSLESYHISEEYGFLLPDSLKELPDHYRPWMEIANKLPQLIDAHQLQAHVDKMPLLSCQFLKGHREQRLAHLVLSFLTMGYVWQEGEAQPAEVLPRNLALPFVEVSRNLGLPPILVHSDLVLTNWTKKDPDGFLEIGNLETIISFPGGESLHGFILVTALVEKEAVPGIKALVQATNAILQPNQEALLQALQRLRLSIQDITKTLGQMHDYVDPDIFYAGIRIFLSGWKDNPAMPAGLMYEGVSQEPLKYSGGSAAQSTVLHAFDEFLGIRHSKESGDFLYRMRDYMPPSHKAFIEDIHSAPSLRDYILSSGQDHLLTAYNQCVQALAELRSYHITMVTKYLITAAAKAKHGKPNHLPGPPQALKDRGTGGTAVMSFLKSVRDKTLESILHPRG

SMILES	IC50 [nM]
O=C1c2cc([N+](=O)[O-])ccc2-n2c1nc1cc(Cl)cc(Cl)c1c2=O [Compound 56, 1,3-Dichloro-8-nitroindolo[2,1-b]quinazoline-6,12-dione]	50 to 500
CN(C)Cc1ccc2nc3n(c(=O)c2c1Cl)-c1ccc(C#N)cc1C3=O [Compound 104]	< 50
NCCNC(=O)c1ccc2c(c1)/C(=N\O)c1nc3cc(Cl)ccc3c(=O)n1-2 [Compound 61]	> 500
CC1(CCC(=O)Nc2ccc3nc4n(c(=O)c3c2)-c2ccc(F)cc2C4=O)N=N1 [Compound 129]	< 50
O=C1c2cc([N+](=O)[O-])ccc2-n2c1nc1ccc(F)c(F)c1c2=O [Compound 108]	50 to 500
CON=C1c2cc(F)ccc2-n2c1nc1cc(CNC(C)=O)ccc1c2=O (stereo in doubt) [Compound 94, (Z)—N-((8-fluoro-6-(methoxyimino)-12-oxo-6,12-dihydroindolo[2,1-b]quinazolin-3-yl)methyl)acetamide]	50 to 500
O=C1c2cc(F)ccc2-n2c1nc1cccc(Br)c1c2=O [Compound 103, 1-bromo-8-fluoroindolo[2,1-b]quinazoline-6,12-dione]	< 50
N#Cc1ccc2c(c1)Cc1nc3cc(F)ccc3c(=O)n1-2 [Compound 72]	< 50
O=C1c2cc([N+](=O)[O-])ccc2-n2c1nc1ccc(F)cc1c2=O [Compound 54, 2-Fluoro-8-nitroindolo[2,1-b]quinazoline-6,12-dione]	< 50
O=C1c2cc([N+](=O)[O-])ccc2-n2c1nc1ccc(F)c(Cl)c1c2=O [Compound 110]	< 50
NCCNC(=O)c1ccc2c(c1)/C(=N\O)c1nc3cc(Cl)ccc3c(=O)n1-2 [Compound 68]	50 to 500

Results, then the molecule that gave them:

IC50 [nM]	SMILES
< 50	N#Cc1ccc2c(c1)C(=O)c1nc3cc(Cl)cc(Cl)c3c(=O)n1-2 [Compound 113]
< 50	COc1cc(OC)nc(Nc2ccc3nc4n(c(=O)c3c2)-c2ccc(F)cc2C4=O)n1 [Compound 135, 2-((4,6-dimethoxypyrimidin-2-yl)amino)-8-fluoroindolo[2,1-b]quinazoline-6,12-dione]
< 50	N=C(N)c1ccc2nc3n(c(=O)c2c1)-c1ccc(F)cc1C3=O [Compound 148, 8-fluoro-6,12-dioxo-6,12-dihydroindolo[2,1-b]quinazoline-2-carboximidamide]
< 50	CO/N=C1\c2cc(F)ccc2-n2c1nc1cc(CNS(N)(=O)=O)ccc1c2=O [Compound 99]
50 to 500	NS(=O)(=O)c1ccc2c(c1)C(=O)c1nc3cc(Cl)ccc3c(=O)n1-2 [Compound 75]
< 50	CO/N=C1/c2cc(F)ccc2-n2c1nc1ccc(-c3c[nH]cn3)cc1c2=O [Compound 146]
> 500	CC1(O)c2cc(F)ccc2-n2c1nc1ccc(C#N)cc1c2=O (stereo not shown) [Compound 152, 8-fluoro-6-hydroxy-6-methyl-12-oxo-6,12-dihydroindolo[2,1-b]quinazoline-2-carbonitrile]
50 to 500	CO/N=C1/c2cc(F)ccc2-n2c1nc1ccc(CNc3ccccn3)cc1c2=O [Compound 134, (Z)-8-fluoro-6-(methoxyimino)-2-((pyridin-2-ylamino)methyl)indolo[2,1-b]quinazolin-12(6H)-one]
< 50	O=C1c2cc(F)ccc2-n2c1nc1cc(Nc3ccc(F)cc3)ccc1c2=O [Compound 83]
50 to 500	NS(=O)(=O)c1ccc2c(c1)C(=O)c1nc3c(Cl)cccc3c(=O)n1-2 [Compound 116]
< 50	[N-]=[N+]=Nc1ccc2c(c1)C(=O)c1nc3cc(Cl)ccc3c(=O)n1-2 [Compound 66]
50 to 500	NS(=O)(=O)c1ccc2c(c1)C(=O)c1nc3cc(F)cc(F)c3c(=O)n1-2 [Compound 109]
50 to 500	CS(=O)(=O)Nc1ccc2c(c1)C(=O)c1nc3cc(Cl)cc(Cl)c3c(=O)n1-2 [Compound 86]
< 50	CON=C1c2cc(C#N)ccc2-n2c1nc1c(Nc3ccc(F)cc3)cccc1c2=O (stereo in doubt) [Compound 118, (Z)-4-((4-Fluorophenyl)amino)-6-(methoxyimino)-12-oxo-6,12-dihydroindolo[2,1-b]quinazoline-8-carbonitrile]
